Assay results: US11911497B2, “Rebaudioside E and food products sweetened with rebaudioside E” (Conagen Inc., priority 2013, dated 2024)

Columns and labels:
[1] = Sourness test, panelists detect presence of sourness by yes or no rating; set-up: species or system human
Procedure: (§1) A standard sweetness test method was employed. Briefly, training sample solutions made of sucrose in water at 1-5% concentration (Brix) at 1% increments were prepared. Reb-E test samples were made of Reb-E in water at 20-60 ppm (parts per million). Panelists were trained to recognize and differentiate between each training solution. Three test solutions of known sucrose concentrations were given to panelists to ensure equal training and to establish a baseline.
(§2) Test solutions were randomized using a random number generator. Two sets of tests were generated for each panelist. Saltine crackers were provided along with water for wash out between test solutions. Each panelist rated each of the solutions according to sweetness (in Brix) and sourness (yes or no). The intensity of each attribute was also collected.
The ability of Reb-E to overcome sourness was also measured, and compared to sucrose. Panelists were asked to detect the presence of sourness by a yes or no rating.

[2] = Standard sweetness test, panelists rate sweetness (Brix) of solutions in water; set-up: species or system human; settings: for Brix (average): average of all panelists
Procedure: as §1, §2

[3] = Reb-E 20 PPM + 0.6% citric acid
[4] = Reb-E 40 PPM + 0.6% citric acid
[5] = Reb-E 50 PPM + 0.6% citric acid
[6] = Reb-E 60 PPM + 0.6% citric acid
[7] = sucrose 10 ×1000 PPM (1%) + 0.6% citric acid
[8] = sucrose 20 ×1000 PPM (2%) + 0.6% citric acid
[9] = sucrose 30 ×1000 PPM (3%) + 0.6% citric acid
[10] = sucrose 40 ×1000 PPM (4%) + 0.6% citric acid

## C=C1C[C@@]23CCC4[C@](C)(C(=O)OC5OC(CO)C(O)C(O)C5OC5OC(CO)C(O)C(O)C5O)CCC[C@@]4(C)[C@@H]2CCC1(OC1OC(CO)C(O)C(O)C1OC1OC(CO)C(O)C(O)C1O)C3 (stereo partly drawn) [Reb-E, 13-[(2-O-β-D-glucopyranosyl-β-D-glucopyranosyl)oxy] ent-kaur-16-en-19-oic acid-(2-O-β-D-glucopyranosyl-β-D-glucopyranosyl) ester]
[1]; [3]
  Sourness detected: No (number of ratings): 2
  Sourness detected: Yes (number of ratings): 10
[1]; [4]
  Sourness detected: No (number of ratings): 2
  Sourness detected: Yes (number of ratings): 4
[1]; [5]
  Sourness detected: No (number of ratings): 1
  Sourness detected: Yes (number of ratings): 11
[1]; [6]
  Sourness detected: No (number of ratings): 0
  Sourness detected: Yes (number of ratings): 6
[1]; within the tested range
  Effectiveness in covering the sourness compared to sucrose solutions: not as effective in covering the sourness as compared to sucrose solutions
[2]; Reb-E 20-60 ppm
  Correlation between sweetness and concentration (FIG. 1): near linear correlation
[2]; Reb-E 20 PPM in water + 0.6% citric acid
  Brix (average): 1.2 Brix
[2]; Reb-E 40 PPM in water + 0.6% citric acid
  Brix (average): 2.1 Brix
[2]; Reb-E 50 PPM in water + 0.6% citric acid
  Brix (average): 2.2 Brix
[2]; Reb-E 60 PPM in water + 0.6% citric acid
  Brix (average): 2.6 Brix

## OC[C@H]1O[C@@](CO)(O[C@H]2O[C@H](CO)[C@@H](O)[C@H](O)[C@H]2O)[C@@H](O)[C@@H]1O [Sucrose, sucrose, reference compound]
[1]; [7]
  Sourness detected: No (number of ratings): 4
  Sourness detected: Yes (number of ratings): 8
[1]; [8]
  Sourness detected: No (number of ratings): 2
  Sourness detected: Yes (number of ratings): 4
[1]; [9]
  Sourness detected: No (number of ratings): 5
  Sourness detected: Yes (number of ratings): 1
[1]; [10]
  Sourness detected: No (number of ratings): 2
  Sourness detected: Yes (number of ratings): 4
[2]; sucrose 10 ×1000 PPM (1%) in water + 0.6% citric acid
  Brix (average): 1.3 Brix
[2]; sucrose 20 ×1000 PPM (2%) in water + 0.6% citric acid
  Brix (average): 2.6 Brix
[2]; sucrose 30 ×1000 PPM (3%) in water + 0.6% citric acid
  Brix (average): 3.4 Brix
[2]; sucrose 40 ×1000 PPM (4%) in water + 0.6% citric acid
  Brix (average): 5.2 Brix
